Experimental data from ChEMBL document CHEMBL2385067, “Preparation of S14161 and its analogues and the discovery of 6-bromo-8-ethoxy-3-nitro-2H-chromene as a more potent antitumor agent in vitro” (2013).
Calls of active or inactive are those of the source. No cut-off for these calls is given here.

Assays:
HeLa [1] = experiment: Growth inhibition of human HeLa cells at 5 uM after 24 hrs by SRB assay; format: functional, cell-based
K562 = experiment: Cytotoxicity against human K562 cells after 24 to 72 hrs by SRB assay; format: functional
HeLa [2] = experiment: Inhibition of PI3K in human HeLa cells assessed as inhibition of EGF1-induced AKT phosphorylation up to 20 uM after 24 hrs by Western blot analysis; format: cell-based
A549 [3] = experiment: Induction of apoptosis in human A549 cells assessed as activation of caspase-3 at 10 uM; format: functional, cell-based
NCI-H460 = experiment: Growth inhibition of human H460 cells at 20 uM after 72 hrs by SRB assay; format: functional, cell-based
MDA-MB-231 = experiment: Cytotoxicity against human MDA-MB-231 cells after 24 to 72 hrs by SRB assay; format: functional
SPCA1 = experiment: Growth inhibition of human SPCA1 cells at 20 uM after 72 hrs by SRB assay; format: functional, cell-based
SK-OV-3 [4] = experiment: Growth inhibition of human SKOV3 cells at 20 uM after 72 hrs by SRB assay; format: functional, cell-based
HUVEC = experiment: Antiangiogenic activity in HUVEC assessed as inhibition of cell migration by measuring area of wounded gap at 5 uM after 8 to 24 hrs by wound healing assay; format: functional, Homo sapiens; design: scale not given: the % may be the effect or the level left
HeLa [5] = experiment: Growth inhibition of human HeLa cells at 20 uM after 72 hrs by SRB assay; format: functional, cell-based
A549 [6] = experiment: Growth inhibition of human A549 cells at 5 to 20 uM after 24 hrs by SRB assay; format: functional, cell-based
SK-OV-3 [7] = experiment: Inhibition of PI3K in human SKOV3 cells assessed as inhibition of EGF1-induced AKT phosphorylation up to 20 uM after 24 hrs by Western blot analysis; format: cell-based
H47D [8] = experiment: Growth inhibition of human H47D cells at 20 uM after 72 hrs by SRB assay; format: functional, cell-based
HeLa [9] = experiment: Growth inhibition of human HeLa cells at 20 uM after 24 hrs by SRB assay; format: functional
PC-3 = experiment: Growth inhibition of human PC3 cells at 20 uM after 72 hrs by SRB assay; format: functional, cell-based
A549 [10] = experiment: Growth inhibition of human A549 cells at 20 uM after 72 hrs by SRB assay; format: functional, cell-based
B16 = experiment: Cytotoxicity against mouse B16 cells after 24 to 72 hrs by SRB assay; format: functional
LP-1 = experiment: Cytotoxicity against human LP-1 cells after 24 to 72 hrs by SRB assay; format: functional
[11] = Cytotoxicity against human U87 cells after 24 to 72 hrs by SRB assay; format: functional, U-87MG ATCC; details: U-87 MG
HeLa [12] = experiment: Growth inhibition of human HeLa cells after 24 hrs by SRB assay; format: functional, cell-based
HeLa [13] = experiment: Inhibition of PI3K in human HeLa cells assessed as inhibition of EGF1-induced AKT protein level up to 20 uM after 24 hrs by Western blot analysis; format: cell-based
H47D [14] = experiment: Inhibition of PI3K in human H47D cells assessed as inhibition of EGF1-induced AKT protein level up to 20 uM after 24 hrs by Western blot analysis; format: cell-based
A549 [15] = experiment: Inhibition of PI3K in human A549 cells assessed as inhibition of EGF1-induced AKT phosphorylation up to 20 uM after 24 hrs by Western blot analysis; format: cell-based
A549 [16] = experiment: Induction of apoptosis in human A549 cells assessed as activation of caspase-3 at 5 uM; format: functional, cell-based
SK-OV-3 [17] = experiment: Inhibition of PI3K in human SKOV3 cells assessed as inhibition of EGF1-induced AKT protein level up to 20 uM after 24 hrs by Western blot analysis; format: cell-based
A549 [18] = experiment: Inhibition of PI3K in human A549 cells assessed as inhibition of EGF1-induced AKT protein level up to 20 uM after 24 hrs by Western blot analysis; format: cell-based
H47D [19] = experiment: Inhibition of PI3K in human H47D cells assessed as inhibition of EGF1-induced AKT phosphorylation up to 20 uM after 24 hrs by Western blot analysis; format: cell-based

| SMILES | growth inhibition (GI) (HeLa [1]) | GI50 (K562) | inhibition (HeLa [2]) | Activity (A549 [3]) | growth inhibition (GI) (NCI-H460) | GI50 (MDA-MB-231) | growth inhibition (GI) (SPCA1) | growth inhibition (GI) (SK-OV-3 [4]) | Activity (HUVEC) | growth inhibition (GI) (HeLa [5]) | growth inhibition (GI) (A549 [6]) | inhibition (SK-OV-3 [7]) | growth inhibition (GI) (H47D [8]) | growth inhibition (GI) (PC-3) | growth inhibition (GI) (A549 [10]) | GI50 (B16) | GI50 (LP-1) | GI50 [11] | also measured |
| --- | --- | --- | --- | --- | --- | --- | --- | --- | --- | --- | --- | --- | --- | --- | --- | --- | --- | --- | --- |
| CCOc1cccc2c1OC(c1ccc(F)cc1)C([N+](=O)[O-])=C2 (centres undefined) | Active | 1240 nM | Active | Active | Active | 8.53 µM | Active | Active | <50% | Active | Active | Active | Active | Active | Active | 23.3 µM | 570 nM | 18.7 µM | growth inhibition (GI) (HeLa [9]): Active |
| CCOc1cccc2c1OC(c1ccc(OC)cc1)C([N+](=O)[O-])=C2 (centres undefined) | – | 4860 nM | – | – | – | – | – | – | – | – | – | – | – | – | – | – | 3160 nM | – | – |
| CCOc1cccc2c1OC(c1ccccc1)C([N+](=O)[O-])=C2 (centres undefined) | – | 1180 nM | – | – | – | – | – | – | – | – | – | – | – | – | – | – | 960 nM | – | – |
| CCOc1cccc2c1OCC([N+](=O)[O-])=C2 | – | 1680 nM | – | – | – | – | – | – | – | – | – | – | – | – | – | – | 640 nM | – | – |
| CCOc1cccc2c1OC(c1ccc(C#N)cc1)C([N+](=O)[O-])=C2 (centres undefined) | – | 1020 nM | – | – | – | – | – | – | – | – | – | – | – | – | – | – | 440 nM | – | – |
| CCOc1cc(Br)cc2c1OCC([N+](=O)[O-])=C2 | Active | 920 nM | Active | Active | Active | 2.03 µM | Active | Active | 20% | Active | Active | Active | Active | Active | Active | 20.4 µM | 330 nM | 12.6 µM | growth inhibition (GI) (HeLa [12]): Dose-dependent effect; inhibition (HeLa [13]): inactive; inhibition (H47D [14]): inactive; inhibition (A549 [15]): Active; Activity (A549 [16]): Active; inhibition (SK-OV-3 [17]): inactive; inhibition of growth at 20 µM (HeLa [9]; read-out: GI): > 90%; inhibition (A549 [18]): inactive; inhibition (H47D [19]): Active |
